Measured values as given in article PMC9189845, “Structure–Activity Relationships of 8-Hydroxyquinoline-Derived Mannich Bases with Tertiary Amines Targeting Multidrug-Resistant Cancer” (Journal of Medicinal Chemistry, 2022).
Read-outs that look alike come from different tables or passages of the source.

Key:
MES-SA cells = assay: PrestoBlue viability assay, MES-SA cells; conditions: Homo sapiens, MES-SA
A431 cells = assay: PrestoBlue viability assay, A431 cells
MES-SA/Dx5 cells = assay: PrestoBlue viability assay, MES-SA/Dx5 cells (MDR, P-gp positive); conditions: for IC50: Homo sapiens; for SR: selectivity ratio MES-SA vs MES-SA/Dx5, without TQ; for SR_TQ: selectivity ratio MES-SA vs MES-SA/Dx5, with TQ
A431-B1 cells = assay: PrestoBlue viability assay, A431-B1 (A431-ABCB1) cells
[1] = 72 h, read-out: IC50 / μM MES-SA, absence of TQ, 72 h incubation
[2] = read-out: pIC50 MES-SA, absence of TQ (converted), SARM figure
[3] = read-out: pIC50 MES-SA_TQ, presence of 1 μM TQ (converted), SARM figure
[4] = read-out: pIC50 value MES-SA, MES-SA cells, without TQ (converted)
[5] = Homo sapiens, A-431, read-out: pIC50 A431, SARM figure (converted)
[6] = MES-SA/Dx5, 72 h, read-out: IC50 / μM MES-SA/Dx5, absence of TQ, 72 h incubation
[7] = MES-SA/Dx5, read-out: pIC50 value MES-SA/Dx5, MES-SA/Dx5 cells, without TQ (converted)
[8] = read-out: pIC50 A431-B1, SARM figure (converted)
[9] = Homo sapiens, A-431, 72 h, read-out: IC50 / µM A431, 72 h incubation
[10] = 72 h, read-out: IC50 / µM A431-B1, 72 h incubation
[11] = read-out: IC50 / μM MES-SA (values in parentheses), presence of 1 μM P-gp inhibitor tariquidar (TQ)
[12] = read-out: pIC50 value MES-SA+TQ, MES-SA cells, with TQ (converted)
[13] = MES-SA/Dx5, read-out: IC50 / μM MES-SA/Dx5 (values in parentheses), presence of 1 μM P-gp inhibitor tariquidar (TQ)
[14] = MES-SA/Dx5, read-out: pIC50 value MES-SA/Dx5 + TQ, MES-SA/Dx5 cells, with TQ (converted)

SMILES	IC50 (MES-SA cells; [1])	IC50 (MES-SA cells; [2])	IC50 (MES-SA cells; [3])	IC50 (MES-SA cells; [4])	IC50 (A431 cells; [5])	IC50 (MES-SA/Dx5 cells; [6])	IC50 (MES-SA/Dx5 cells; MES-SA/Dx5, read-out: pIC50 Dx5, absence of TQ (converted), SARM figure)	IC50 (MES-SA/Dx5 cells; MES-SA/Dx5, read-out: pIC50 Dx5_TQ, presence of 1 μM TQ (converted), SARM figure)	IC50 (MES-SA/Dx5 cells; [7])	SR (MES-SA/Dx5 cells)	IC50 (A431-B1 cells; [8])	IC50 (A431 cells; [9])	IC50 (A431-B1 cells; [10])	IC50 (MES-SA cells; [11])	IC50 (MES-SA cells; [12])	IC50 (MES-SA/Dx5 cells; [13])	IC50 (MES-SA/Dx5 cells; [14])	SR_TQ (MES-SA/Dx5 cells)	IC50 (A431 cells; read-out: IC50 / µM A431, 72 h incubation)	IC50 (A431-B1 cells; read-out: IC50 / µM A431-B1, 72 h incubation)
Oc1c(C(c2ccncc2)N2CCCCC2)ccc2cccnc12 (centres unmarked) [Compound 96]	22.7 ± 0.86 µM	15.5 µM	13.8 µM	22.9 µM	35.5 µM	14 ± 1.5 µM	8.32 µM	12.6 µM	13.8 µM	1.62	4.57 µM									
CC(=O)Nc1cc(CN2CCCCC2)c(O)c2ncccc12 [Compound 11]	12.4 ± 1.67 µM			12.3 µM		19.4 ± 2.33 µM			19.1 µM	0.64		> 100 µM	58.2 ± 0.65 µM							
Oc1c(CN2CCOCC2)cc(Br)c2cccnc12 [Compound 30]	1.13 ± 0.13 µM			1.12 µM	8.91 µM	0.46 ± 0.04 µM			0.457 µM	2.46	2.88 µM	9.3 ± 3.05 µM	2.89 ± 0.25 µM	1.32 ± 0.01 µM	1.32 µM	0.85 ± 0.06 µM	0.851 µM	1.54		
CCN(CC)Cc1cc(Cl)c2cccnc2c1O [Compound 5]	2.97 ± 0.33 µM			2.95 µM	9.33 µM	0.35 ± 0.06 µM			0.347 µM	8.44	1.48 µM	9.29 ± 1.55 µM	1.58 ± 1.11 µM	3.25 µM	3.24 µM	1.82 µM	1.82 µM	1.78	10 ± 4.2 µM	1.52 ± 0.32 µM
CCOCc1cc(CN2CCC(C)CC2)c(O)c2ncccc12 [Compound 27]	4.09 ± 0.42 µM			4.07 µM	11 µM	0.47 ± 0.05 µM			0.468 µM	8.71	2.24 µM	11.8 ± 4.34 µM	2.37 ± 0.87 µM	4.48 ± 0.37 µM	4.47 µM	3.05 ± 0.47 µM	3.02 µM	1.47		
Oc1c(C(c2ccccn2)N2CCCC2)ccc2cccnc12 (centres unmarked) [Compound 84]	17.2 ± 1.86 µM			17 µM	41.7 µM	10.2 ± 0.6 µM			10.2 µM	1.69	9.55 µM									
Oc1c(CN2CCCC2)cc(Cl)c2cccnc12 [Compound 15]	3.46 ± 0.51 µM			3.39 µM	7.41 µM	0.3 ± 0.06 µM			0.295 µM	11.53	1.95 µM	7.45 ± 0.15 µM	1.97 ± 0.25 µM	4.34 µM	4.27 µM	3.21 µM	3.16 µM	1.35		
COCc1cc(CN2CCCCC2)c(O)c2ncccc12 [Compound 21]	9.35 ± 0.61 µM			9.33 µM	22.4 µM	0.92 ± 0.11 µM			0.912 µM	10.19	3.55 µM	22.6 ± 4.32 µM	3.53 ± 0.14 µM	9.56 ± 0.39 µM	9.55 µM	7.59 ± 0.08 µM	7.59 µM	1.26		
Oc1c(C(c2ccccn2)N2CCCC2)cc(Cl)c2cccnc12 (centres unmarked) [Compound 90]	12 ± 1.5 µM			12 µM	49 µM	6.3 ± 0.15 µM			6.31 µM	1.91	13.2 µM				5.89 µM		3.31 µM	1.78		
Oc1c(CN2CCN(c3ccccn3)CC2)cc(Cl)c2cccnc12 [Compound 43]	2.19 ± 0.12 µM	2.19 µM	2.19 µM	2.19 µM	9.33 µM	0.33 ± 0.05 µM			0.331 µM	6.55	7.59 µM	9.41 ± 1.41 µM	8.06 ± 2.89 µM	2.19 ± 0.17 µM	2.19 µM	1.23 ± 0.05 µM		1.78		
CCOCc1cc(CN2CCOCC2)c(O)c2ncccc12 [Compound 32]	5.85 ± 0.54 µM			5.75 µM	22.4 µM	3 ± 0.3 µM			2.95 µM	1.95	5.5 µM	24.7 ± 10.9 µM	5.58 ± 0.58 µM							
